Key:
Test in all cases: relative viability (nuclei count vs DMSO), 5 days (fraction); higher = more cells survive
[1] = compound: NC(=O)[C@@H](CCC(F)(F)F)N(Cc1ccc(-c2ncon2)cc1F)S(=O)(=O)c1ccc(Cl)cc1 [Avagacestat] + CC(=O)c1c(C)c2cnc(Nc3ccc(N4CCNCC4)cn3)nc2n(C2CCCC2)c1=O [Palbociclib] (partner 0.5 µM)
Procedure, shortened: (§1)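 Lung cancer cell lines in 1536-well plates got either a single drug or a fixed anchor-drug dose together with five library-drug doses (not always all listed) in √10 steps, by pin tool, on the day after seeding. Nuclei were counted after 5 days, and relative viability is the treated-to-vehicle ratio of nuclei counts. Values are medians of duplicate plates.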

Avagacestat + Vorinostat = compound: NC(=O)[C@@H](CCC(F)(F)F)N(Cc1ccc(-c2ncon2)cc1F)S(=O)(=O)c1ccc(Cl)cc1 [Avagacestat] + O=C(CCCCCCC(=O)Nc1ccccc1)NO [Vorinostat] (partner 1 µM)
Procedure, shortened: as §1

Avagacestat + AZD7762 = compound: NC(=O)[C@@H](CCC(F)(F)F)N(Cc1ccc(-c2ncon2)cc1F)S(=O)(=O)c1ccc(Cl)cc1 [Avagacestat] + NC(=O)Nc1cc(-c2cccc(F)c2)sc1C(=O)N[C@H]1CCCNC1 [AZD7762] (partner 0.2 µM)
Procedure, shortened: as §1

Avagacestat + Crizotinib = compound: NC(=O)[C@@H](CCC(F)(F)F)N(Cc1ccc(-c2ncon2)cc1F)S(=O)(=O)c1ccc(Cl)cc1 [Avagacestat] + C[C@@H](Oc1cc(-c2cnn(C3CCNCC3)c2)cnc1N)c1c(Cl)ccc(F)c1Cl [Crizotinib] (partner 1 µM)
Procedure, shortened: as §1

Cell Line	relative viability ([1]; first compound 0.08 µM)	relative viability ([1]; first compound 0.253 µM)	relative viability ([1]; first compound 0.8 µM)	relative viability ([1]; first compound 2.53 µM)	relative viability ([1]; first compound 8 µM)	relative viability (Avagacestat + Vorinostat; first compound 0.08 µM)	relative viability (Avagacestat + Vorinostat; first compound 0.253 µM)	relative viability (Avagacestat + Vorinostat; first compound 0.8 µM)	relative viability (Avagacestat + Vorinostat; first compound 2.53 µM)	relative viability (Avagacestat + Vorinostat; first compound 8 µM)	relative viability (Avagacestat + AZD7762; first compound 0.08 µM)	relative viability (Avagacestat + AZD7762; first compound 0.253 µM)	relative viability (Avagacestat + AZD7762; first compound 0.8 µM)	relative viability (Avagacestat + AZD7762; first compound 2.53 µM)	relative viability (Avagacestat + AZD7762; first compound 8 µM)	relative viability (Avagacestat + Crizotinib; first compound 0.08 µM)	relative viability (Avagacestat + Crizotinib; first compound 0.253 µM)	relative viability (Avagacestat + Crizotinib; first compound 0.8 µM)	relative viability (Avagacestat + Crizotinib; first compound 2.53 µM)	relative viability (Avagacestat + Crizotinib; first compound 8 µM)
201T	0.361	0.307	0.382	0.331	0.352	1.01	1.03	0.925	0.857	0.86	0.65	0.712	0.607	0.56	0.587	1.06	0.991	1.03	1.04	1.01
A-427	0.506	0.517	0.516	0.539	0.544	0.958	0.945	1.03	0.946	0.952	0.752	0.753	0.703	0.619	0.68	0.986	1.19	0.842	0.75	0.837
ABC-1	0.846	0.542	0.67	0.654	0.522	1.22	1.14	1.71	1.15	1.02	0.864	1.02	0.895	0.94	0.664	1.05	1.59	1.53	1.09	1.09
BEN	0.466	0.456	0.502	0.513	0.482	0.589	0.653	0.579	0.526	0.588	0.706	0.676	0.744	0.79	0.644	0.835	1.12	0.835	0.607	0.809
CAL-12T	0.535	0.384	0.474	0.478	0.5	0.918	1.1	0.796	0.729	0.798	0.703	0.703	0.782	0.61	0.569	0.607	0.52	0.717	0.627	0.679
ChaGo-K-1	1.05	1.01	0.933	0.887	0.798	0.783	0.874	0.79	0.755	0.692	0.896	0.855	0.818	0.794	0.733	1.06	1.31	1.11	1.05	0.974
EKVX	0.392	0.374	0.405	0.365	0.293	0.826	0.783	0.904	0.75	0.68	0.699	0.779	0.818	0.633	0.624	1.02	1.35	1.06	0.899	0.857
EMC-BAC-2	0.539	0.577	0.556	0.52	0.543	0.662	0.581	0.803	0.535	0.51	1.23	1.33	1.28	0.976	1.21	0.797	0.844	0.766	0.704	0.719
EPLC-272H	0.368	0.344	0.327	0.32	0.291	0.413	0.318	0.539	0.367	0.321	0.268	0.233	0.244	0.169	0.156	1.06	0.988	1.03	0.969	0.799
H3255	0.312	0.361	0.331	0.373	0.401	0.825	0.89	1.03	0.861	0.7	1.02	0.988	1.22	0.928	0.775	1.05	1.07	1.01	0.872	0.865
HARA	0.26	0.237	0.248	0.263	0.24	0.572	0.551	0.524	0.716	0.549	0.303	0.276	0.332	0.24	0.184	1.23	1.27	1.06	1.03	0.76
HCC-15	0.906	1.01	0.78	0.68	0.694	0.976	1.03	0.979	0.796	0.818	1.21	1.22	1.3	1.16	1.38	0.871	0.911	0.695	0.715	0.779
HCC-44	0.976	0.997	0.983	1.04	1.01	1.09	1.14	1.19	1.07	1.21	0.923	1.04	1.03	1.01	1.18	0.92	0.905	0.846	0.838	0.699
HCC-78	0.493	0.488	0.511	0.478	0.441	0.499	0.458	0.416	0.391	0.351	0.61	0.615	0.665	0.461	0.529	0.322	0.343	0.338	0.322	0.314
HCC-366	0.355	0.34	0.465	0.332	0.333	0.472	0.426	0.437	0.31	0.385	0.268	0.272	0.328	0.235	0.176	0.608	0.645	0.517	0.525	0.645
HCC-827	0.468	0.478	0.503	0.442	0.465	0.75	0.849	0.855	0.946	0.832	0.193	0.188	0.216	0.161	0.188	0.868	0.85	0.992	1.03	0.999
